Laboratory results reported in the CheMixHub viscosity set.
“And” between values parts separate entries of the source, which are not always exact repeats. Equal entries are not always repeated.

Key:
[1] = xn = mol fraction of the nth substance listed

CC(=O)[O-].CCCC[NH2+]CCO
101 kPa
Conditions	viscosity [mPa·s]
293.15 K	1412
298.15 K	921.1
303.15 K	616.9
308.15 K	423.3
313.15 K	297
318.15 K	212.7
323.15 K	155.3

CC1CCCCC1
Conditions	viscosity
293.15 K, 100 kPa	0.736 mPa·s (2×) and 0.73 mPa·s
293.15 K, 101.2 kPa	0.7298 mPa·s
298.15 K, 100 kPa	0.69 mPa·s
298.15 K, 101 kPa	0.68 mPa·s
298.15 K, 101.2 kPa	0.6819 mPa·s
303.15 K, 100 kPa	0.65 mPa·s and 0.639 mPa·s
303.15 K, 101 kPa	0.6416 mPa·s
303.15 K, 101.2 kPa	0.6389 mPa·s
303.15 K, 101.3 kPa	0.6407 mPa·s
303.15 K, 101.33 kPa	0.639 mPa·s
308.15 K, 100 kPa	0.61 mPa·s
313.15 K, 100 kPa	0.568 mPa·s
313.15 K, 101.2 kPa	0.5641 mPa·s
318.15 K, 100 kPa	0.54 mPa·s
318.15 K, 101.2 kPa	0.5314 mPa·s
323.15 K, 100 kPa	0.51 mPa·s and 0.501 mPa·s

CCOC(=O)[C@@H](O)[C@H](O)C(=O)OCC
101 kPa
Conditions	viscosity
293.15 K	221.3 mPa·s
298.15 K	137.7 mPa·s and 137.7 mPa·s
303.15 K	90.07 mPa·s and 90.07 mPa·s
308.15 K	61.58 mPa·s and 61.58 mPa·s
313.15 K	43.68 mPa·s and 43.68 mPa·s
318.15 K	32.1 mPa·s and 32.1 mPa·s
323.15 K	24.37 mPa·s and 24.37 mPa·s

OC1CCCCCCC1
100 kPa
Conditions	viscosity [mPa·s]
293.15 K	210
298.15 K	143
303.15 K	102.5
308.15 K	72
313.15 K	55
318.15 K	40

Cc1cccc([N+](=O)[O-])c1 + Cc1ccccc1C
[1], 308.15 K, 101.33 kPa
Conditions	viscosity [mPa·s]
x2 = 0.1044	1.384
x2 = 0.2068	1.211
x2 = 0.2995	1.102
x2 = 0.4028	1.01
x2 = 0.5015	0.944
x2 = 0.6123	0.867
x2 = 0.7055	0.81
x2 = 0.8268	0.742
x2 = 0.9132	0.698

CCOC(=O)c1ccccc1 + Cc1ccccc1Cl
viscosity [mPa·s], [1], 101 kPa
Conditions	303.15 K	313.15 K
x1 = 0.0262	0.899	0.753
x1 = 0.0785	0.926	0.772
x1 = 0.1304	0.952	0.793
x1 = 0.2081	0.996	0.826
x1 = 0.2594	1.022	0.846
x1 = 0.3343	1.067	0.881
x1 = 0.3851	1.099	0.906
x1 = 0.4613	1.149	0.945
x1 = 0.5356	1.208	0.99
x1 = 0.6108	1.274	1.041
x1 = 0.709	1.375	1.12
x1 = 0.8085	1.497	1.215
x1 = 0.9045	1.635	1.323

C1=CCCCC1 + ClC(Cl)(Cl)Cl
[1], 303.15 K, 101 kPa
Conditions	viscosity [mPa·s]
x1 = 0.1014	0.875
x1 = 0.2018	0.839
x1 = 0.3213	0.8
x1 = 0.4018	0.775
x1 = 0.5046	0.74
x1 = 0.5562	0.722
x1 = 0.6526	0.688
x1 = 0.7514	0.653
x1 = 0.9049	0.603

CCCCCCCCCBr + ClC(Cl)(Cl)Cl
[1], 101 kPa
Conditions	viscosity [mPa·s]
297.75 K, x1 = 0.0486	0.9597
297.75 K, x1 = 0.0978	1.013
297.75 K, x1 = 0.1959	1.12
297.75 K, x1 = 0.3924	1.327
297.75 K, x1 = 0.5939	1.527
297.75 K, x1 = 0.7974	1.744
303.55 K, x1 = 0.0959	0.926
303.55 K, x1 = 0.2498	1.086
303.55 K, x1 = 0.3966	1.22
303.55 K, x1 = 0.5928	1.381
303.55 K, x1 = 0.7755	1.526
313.65 K, x1 = 0.0515	0.7651
313.65 K, x1 = 0.0985	0.8039
313.65 K, x1 = 0.1952	0.8852
313.65 K, x1 = 0.3592	1.028
313.65 K, x1 = 0.5926	1.189
313.65 K, x1 = 0.7767	1.301

c1cscn1 + ClC(Cl)(Cl)Cl
[1], 298.15 K, 101 kPa
Conditions	viscosity [mPa·s]
x1 = 0.1198	0.9186
x1 = 0.2066	0.9327
x1 = 0.2139	0.933
x1 = 0.2899	0.9459
x1 = 0.3525	0.9561
x1 = 0.4862	0.9809
x1 = 0.592	0.994
x1 = 0.689	1.007
x1 = 0.7728	1.01
x1 = 0.8194	1.011
x1 = 0.8719	1.011
x1 = 0.9315	1.006
